Laboratory results: article PMC9318203, “Squaramide-Tethered Sulfonamides and Coumarins: Synthesis, Inhibition of Tumor-Associated CAs IX and XII and Docking Simulations” (International Journal of Molecular Sciences, 2022)
“And” between values parts separate entries of the source, which are not always exact repeats. Equal entries are not always repeated.

How the values were obtained:
hCA I = biological target: T1, hCA I (Homo sapiens, UniProt P00915); experiment: stopped-flow CO2 hydrase assay, hCA I; type: biochemical
T1 construct: made in house
Protocol: (§1) For that purpose, the stopped-flow CO2 hydration assay was used (Table 1).
(§2) The inhibitory properties of title compounds against CAs were determined using the stopped-flow CO2 hydrase assay, as previously reported.

hCA XII = biological target: T2, hCA XII (Homo sapiens, UniProt O43570); experiment: stopped-flow CO2 hydrase assay, hCA XII; type: biochemical; details: for S.I. I/XII: Ki (CA I)/Ki (CA XII); for S.I. II/XII: Ki (CA II)/Ki (CA XII)
T2 construct: made in house
Protocol: as §1, §2

hCA II = biological target: T3, hCA II (Homo sapiens, UniProt P00918); experiment: stopped-flow CO2 hydrase assay, hCA II; type: biochemical
T3 construct: made in house
Protocol: as §1, §2

hCA IX = biological target: T4, hCA IX (Homo sapiens, UniProt Q16790); experiment: stopped-flow CO2 hydrase assay, hCA IX; type: biochemical; details: for S.I. I/IX: Ki (CA I)/Ki (CA IX); for S.I. II/IX: Ki (CA II)/Ki (CA IX)
T4 construct: made in house
Protocol: as §1, §2

[1] = sulfonamido-containing squaramides, mean from 3 assays, stopped flow
[2] = coumarin-containing squaramides, incubation time 6 h, mean from three assays

T2 sequence (O43570 25-354): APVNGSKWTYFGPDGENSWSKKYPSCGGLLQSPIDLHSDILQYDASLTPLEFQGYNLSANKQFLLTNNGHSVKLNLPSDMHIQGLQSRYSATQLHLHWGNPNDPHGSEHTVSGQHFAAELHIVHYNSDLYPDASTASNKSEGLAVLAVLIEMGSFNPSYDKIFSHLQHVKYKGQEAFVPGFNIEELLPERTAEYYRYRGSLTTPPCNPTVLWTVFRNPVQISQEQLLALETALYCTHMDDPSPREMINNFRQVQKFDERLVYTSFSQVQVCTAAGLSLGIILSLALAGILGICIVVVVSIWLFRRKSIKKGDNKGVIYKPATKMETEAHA
T1 sequence (P00915 whole entry): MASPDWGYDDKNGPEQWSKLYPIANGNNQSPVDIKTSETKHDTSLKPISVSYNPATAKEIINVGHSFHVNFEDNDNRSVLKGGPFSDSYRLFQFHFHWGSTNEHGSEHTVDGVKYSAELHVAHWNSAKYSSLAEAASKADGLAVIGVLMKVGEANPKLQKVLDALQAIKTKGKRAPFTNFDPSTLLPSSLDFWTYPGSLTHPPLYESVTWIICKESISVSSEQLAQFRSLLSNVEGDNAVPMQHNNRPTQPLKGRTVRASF

Row | SMILES | Ki (hCA I; [1]) [nM] | S.I. I/XII (hCA XII) | S.I. II/XII (hCA XII) | Ki (hCA XII; [1]) | Ki (hCA II; [1]) [nM] | S.I. I/IX (hCA IX) | S.I. II/IX (hCA IX) | Ki (hCA IX; [1]) [nM] | melting point [°C] | S.I. (range of the selectivity indexes) (hCA IX; range over I/IX, I/XII, II/IX, II/XII) | Ki (hCA I; [2]) [nM] | Ki (hCA XII; [2]) [nM] | Ki (hCA II; [2]) [nM] | Ki (hCA IX; [2]) [nM]
1 | NS(=O)(=O)c1ccc(CCNc2c(Nc3ccccc3)c(=O)c2=O)cc1 [Compound 5a, 3-Phenylamino-4-[2′-(4″-sulfonamidophenyl)ethylamino]cyclobut-3-ene-1,2-dione] | 211 | 2.2 | 7.4 | 96.8 nM | 720 | 2.8 | 9.6 | 75.3 | > 250 |  |  |  |  | 
2 | COc1ccc(Nc2c(NCCc3ccc(S(N)(=O)=O)cc3)c(=O)c2=O)cc1 [Compound 5b, 3-(p-Methoxyphenyl)amino-4-[2′-(4″-sulfonamidophenyl)ethylamino]cyclobut-3-ene-1,2-dione] | 373 | 2.4 | 4.6 | 158 nM | 724 | 4.0 | 7.8 | 92.5 | > 250 |  |  |  |  | 
3 | NS(=O)(=O)c1ccc(CCNc2c(Nc3ccc(Cl)cc3)c(=O)c2=O)cc1 [Compound 5c, 3-(p-Chlorophenyl)amino-4-[2′-(4″-sulfonamidophenyl)ethylamino]cyclobut-3-ene-1,2-dione] | 881 | 9.8 | 9.1 | 90.2 nM | 819 | 1.8 | 1.7 | 490 | > 250 |  |  |  |  | 
4 | NS(=O)(=O)c1ccc(CCNc2c(Nc3ccc(Br)cc3)c(=O)c2=O)cc1 [Compound 5d, 3-(p-Bromophenyl)amino-4-[2′-(4″-sulfonamidophenyl)ethylamino]cyclobut-3-ene-1,2-dione] | 457 | 5.3 | 11 | 85.5 nM | 910 | 6.8 | 14 | 67.6 | > 250 | 6.8–14 |  |  |  | 
5 | NS(=O)(=O)c1ccc(CCNc2c(Nc3ccc(I)cc3)c(=O)c2=O)cc1 [Compound 5e, 3-(p-Iodophenyl)amino-4-[2′-(4″-sulfonamidophenyl)ethylamino]cyclobut-3-ene-1,2-dione] | 471 | 5.2 | 9.5 | 90.3 nM | 856 | 5.1 | 9.2 | 92.7 | > 250 |  |  |  |  | 
6 | NS(=O)(=O)c1ccc(Nc2c(Nc3ccccc3)c(=O)c2=O)cc1 [Compound 8, 3-Phenylamino-4-[4′-(sulfonamidophenyl)]aminocyclobut-3-ene-1,2-dione] | 98 | 15 | 10 | 6.57 nM | 65.9 | 5.0 | 3.4 | 19.5 | > 250 |  |  |  |  | 
7 | COc1c(Nc2cccc(S(N)(=O)=O)c2)c(=O)c1=O [Compound 10, 3-Methoxy-4-[3′-(sulfonamidophenyl)]aminocyclobut-3-ene-1,2-dione] | 79.9 | 14 | 7.1 | 5.78 nM | 40.9 | 3.0 | 1.6 | 26.2 |  |  |  |  |  | 
8 | NS(=O)(=O)c1cccc(Nc2c(Nc3ccccc3)c(=O)c2=O)c1 [Compound 11] | 580 | 63 | 10 | 9.5 nM and 9.15 nM | 95.5 | 20 | 3.2 | 29.4 |  |  |  |  |  | 
9 | Cc1cc(=O)oc2cc(OCCCNc3c(Nc4ccccc4)c(=O)c3=O)ccc12 [Compound 16a, 3-{[3′-((4″-Methyl-2″-oxo-2″H-chromen-7″-yl)oxy)propyl]amino}-4-phenylaminocyclobut-3-ene-1,2-dione] |  |  |  |  |  |  |  |  | > 250 |  | > 10000 | 42.1 | > 10000 | 79.3
10 | Cc1cc(=O)oc2cc(OCCCCCCCCCNc3c(Nc4ccccc4)c(=O)c3=O)ccc12 [Compound 16c, 3-{[9′-((4″-Methyl-2″-oxo-2″H-chromen-7″-yl)oxy)nonyl]amino}-4-phenylaminocyclobut-3-ene-1,2-dione] |  |  |  |  |  |  |  |  | 200 to 201 |  | > 10000 | 7.23 | > 10000 | 19.2
11 | Cc1cc(=O)oc2cc(OCCCCCCCCCCCCNc3c(Nc4ccccc4)c(=O)c3=O)ccc12 [Compound 16d, 3-{[12′-((4″-Methyl-2″-oxo-2″H-chromen-7″-yl)oxy)dodecyl]amino}-4-phenylaminocyclobut-3-ene-1,2-dione] |  |  |  |  |  |  |  |  | 178 to 179 |  | > 10000 | 7.91 | > 10000 | 18.1
12 | Cc1cc(=O)oc2cc(OCCCCCNc3c(Nc4ccc(Cl)cc4)c(=O)c3=O)ccc12 [Compound 16g, 3-[(4′-Chlorophenyl)amino]-4-{[5″-(4‴-methyl-2‴-oxo-2‴H-chromen-7‴-yl)oxypentyl]amino}cyclobut-3-ene-1,2-dione] |  |  |  |  |  |  |  |  | 225 to 227 |  | > 10000 | 24.4 | > 10000 | 65.3
13 | Cc1cc(=O)oc2cc(OCCCCCNc3c(Nc4ccc(Br)cc4)c(=O)c3=O)ccc12 [Compound 16h, 3-[(4′-Bromophenyl)amino]-4-{[5″-(4‴-methyl-2‴-oxo-2‴H-chromen-7‴-yl)oxypentyl]amino}cyclobut-3-ene-1,2-dione] |  |  |  |  |  |  |  |  | 248 to 249 |  | > 10000 | 13.9 | > 10000 | 46.2
14 | Cc1cc(=O)oc2cc(OCCCCCNc3c(Nc4ccc(I)cc4)c(=O)c3=O)ccc12 [Compound 16i, 3-[(4′-Iodophenyl)amino]-4-{[5″-(4‴-methyl-2‴-oxo-2‴H-chromen-7‴-yl)oxypentyl]amino}cyclobut-3-ene-1,2-dione] |  |  |  |  |  |  |  |  | > 250 |  | > 10000 | 21.5 | > 10000 | 57
15 | Cc1c(C)c2ccc(OCCCCCNc3c(Nc4ccccc4)c(=O)c3=O)cc2oc1=O [Compound 16j, 3-{[5′-((3″,4″-Dimethyl-2″-oxo-2″H-chromen-7″-yl)oxy)pentyl]amino}-4-phenylaminocyclobut-3-ene-1,2-dione] |  |  |  |  |  |  |  |  | > 250 |  | > 10000 | 58.3 | > 10000 | 107
16 | COc1ccc(Nc2c(NCCCCCOc3ccc4c(C)c(C)c(=O)oc4c3)c(=O)c2=O)cc1 [Compound 16k, 3-{[5′-(3″,4″-Dimethyl-2″-oxo-2″H-chromen-7″-yl)oxypentyl]amino}-4-(4‴-methoxyphenylamino)cyclobut-3-ene-1,2-dione] |  |  |  |  |  |  |  |  | > 250 |  | > 10000 | 45.4 | > 10000 | 86.5
17 | Cc1c(C)c2ccc(OCCCCCNc3c(Nc4ccc(F)cc4)c(=O)c3=O)cc2oc1=O [Compound 16l, 3-{[5′-(3″,4″-Dimethyl-2″-oxo-2″H-chromen-7″-yl)oxypentyl]amino}-4-(4‴-fluorophenylamino)cyclobut-3-ene-1,2-dione] |  |  |  |  |  |  |  |  | > 250 |  | > 10000 | 62.9 | > 10000 | 113
18 | Cc1c(C)c2ccc(OCCCCCNc3c(Nc4ccc(Cl)cc4)c(=O)c3=O)cc2oc1=O [Compound 16m, 3-[(4′-Chlorophenyl)amino]-4-{[5″-(3‴,4‴-dimethyl-2‴-oxo-2‴H-chromen-7‴-yl)oxypentyl]amino}cyclobut-3-ene-1,2-dione] |  |  |  |  |  |  |  |  | > 250 |  | > 10000 | 43 | > 10000 | 96.6
19 | Cc1c(C)c2ccc(OCCCCCNc3c(Nc4ccc(Br)cc4)c(=O)c3=O)cc2oc1=O [Compound 16n, 3-[(4′-Bromophenyl)amino]-4-{[5″-(3‴,4‴-dimethyl-2‴-oxo-2‴H-chromen-7″-yl)oxypentyl]amino}cyclobut-3-ene-1,2-dione] |  |  |  |  |  |  |  |  |  |  | > 10000 | 69.6 | > 10000 | 132
